Values belong to the molecule of their own block, whether it stands above or below them. Active and inactive are the calls of the source.
How the values were obtained:
H9c2 = test: cells; assay type: functional, cell-based; conditions: Rattus norvegicus, H9c2, Myocardium;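 also: confirmatory concentration-response retest of ultra-high-throughput screening hits for modulation of myocardial damage; cell death induced by hydrogen peroxide oxidative stress; compound pretreatment for 60 min then peroxide exposure for 2 h; potency is for protecting the cells against peroxide damage rather than for killing them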
[1] = biological target: T1, Type-1 angiotensin II receptor (Homo sapiens, UniProt P30556); test: agonist activity at AGTR1 – cell-based, uHTS hits, selectivity assay for APJ receptor agonist project, dose response (AID 488865); assay type: functional;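 also: beta-arrestin recruitment to AT1 measured by enzyme fragment complementation luminescence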
T1 sequence (P30556 whole entry): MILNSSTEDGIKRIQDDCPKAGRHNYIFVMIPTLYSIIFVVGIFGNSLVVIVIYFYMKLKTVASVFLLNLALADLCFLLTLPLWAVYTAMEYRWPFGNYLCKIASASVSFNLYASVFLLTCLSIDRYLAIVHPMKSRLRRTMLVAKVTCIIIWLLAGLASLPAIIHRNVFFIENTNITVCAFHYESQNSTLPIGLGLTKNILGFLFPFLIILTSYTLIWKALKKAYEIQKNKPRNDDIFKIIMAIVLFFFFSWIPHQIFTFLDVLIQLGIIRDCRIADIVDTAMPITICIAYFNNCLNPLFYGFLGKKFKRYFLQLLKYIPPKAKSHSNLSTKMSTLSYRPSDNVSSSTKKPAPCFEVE

[2] = viability of uninfected HEp-2 cells – cell-based, HTS, cytotoxicity control for RSV inhibitor project, dose response (AID 2410); assay type: functional; conditions: human respiratory syncytial virus
[3] = biological target: T2, Intestinal-type alkaline phosphatase (Homo sapiens, UniProt P09923); test: activation of human intestinal alkaline phosphatase – biochemical, luminescent, uHTS hits, set 2, dose response (AID 488817); assay type: functional;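 also: potency of activators that raise enzyme activity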
[4] = biological target: Intestinal-type alkaline phosphatase (Mus musculus, UniProt P24822); test: PubChem AID 488875; assay type: functional
[5] = biological target: T3, Alkaline phosphatase, tissue-nonspecific isozyme (Homo sapiens, UniProt P05186); test: activation of tissue-nonspecific alkaline phosphatase – biochemical, TNAP isozyme, human IAP uHTS hits, selectivity assay for human IAP activator project, dose response (AID 488886); assay type: functional;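 also: potency of compounds raising TNAP activity as a selectivity check on IAP activators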
T3 sequence (P05186 whole entry): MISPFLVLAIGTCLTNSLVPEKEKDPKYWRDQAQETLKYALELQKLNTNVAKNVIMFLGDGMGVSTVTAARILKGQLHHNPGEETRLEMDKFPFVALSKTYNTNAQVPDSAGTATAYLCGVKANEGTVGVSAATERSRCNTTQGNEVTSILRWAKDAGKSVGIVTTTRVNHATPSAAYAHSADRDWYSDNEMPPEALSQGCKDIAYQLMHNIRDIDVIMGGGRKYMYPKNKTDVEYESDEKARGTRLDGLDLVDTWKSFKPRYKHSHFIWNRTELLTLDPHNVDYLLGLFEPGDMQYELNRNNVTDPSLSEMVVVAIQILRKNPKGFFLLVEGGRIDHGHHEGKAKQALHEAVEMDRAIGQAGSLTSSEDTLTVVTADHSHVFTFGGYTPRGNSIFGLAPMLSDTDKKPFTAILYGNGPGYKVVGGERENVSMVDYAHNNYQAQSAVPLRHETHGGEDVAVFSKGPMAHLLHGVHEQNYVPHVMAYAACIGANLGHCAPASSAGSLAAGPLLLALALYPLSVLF

[6] = biological target: T2, Intestinal-type alkaline phosphatase; test: human intestinal alkaline phosphatase activators, dose response, biochemical, luminescence, uHTS hits (AID 463120); assay type: functional
[7] = biological target: G-protein coupled receptor 55 (Homo sapiens, UniProt Q9Y2T6); test: inhibition of LPI-stimulated GPR55 beta-arrestin translocation – imaging, U2OS, beta-arrestin-GFP, LPI agonist, primary screen (AID 2013); assay type: functional;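 also: antagonist potency measured as reduced agonist-driven arrestin aggregation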
G-protein coupled receptor 55, sequence (Q9Y2T6 whole entry): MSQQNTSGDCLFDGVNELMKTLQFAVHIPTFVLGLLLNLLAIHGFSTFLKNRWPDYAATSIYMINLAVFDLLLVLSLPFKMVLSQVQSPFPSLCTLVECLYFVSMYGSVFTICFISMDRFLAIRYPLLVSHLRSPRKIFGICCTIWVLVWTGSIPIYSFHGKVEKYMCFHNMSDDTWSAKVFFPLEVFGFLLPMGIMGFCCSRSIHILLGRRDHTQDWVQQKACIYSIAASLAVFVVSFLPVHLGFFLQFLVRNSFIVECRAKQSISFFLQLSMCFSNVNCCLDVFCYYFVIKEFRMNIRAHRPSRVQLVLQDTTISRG

T2 sequence (P09923 whole entry): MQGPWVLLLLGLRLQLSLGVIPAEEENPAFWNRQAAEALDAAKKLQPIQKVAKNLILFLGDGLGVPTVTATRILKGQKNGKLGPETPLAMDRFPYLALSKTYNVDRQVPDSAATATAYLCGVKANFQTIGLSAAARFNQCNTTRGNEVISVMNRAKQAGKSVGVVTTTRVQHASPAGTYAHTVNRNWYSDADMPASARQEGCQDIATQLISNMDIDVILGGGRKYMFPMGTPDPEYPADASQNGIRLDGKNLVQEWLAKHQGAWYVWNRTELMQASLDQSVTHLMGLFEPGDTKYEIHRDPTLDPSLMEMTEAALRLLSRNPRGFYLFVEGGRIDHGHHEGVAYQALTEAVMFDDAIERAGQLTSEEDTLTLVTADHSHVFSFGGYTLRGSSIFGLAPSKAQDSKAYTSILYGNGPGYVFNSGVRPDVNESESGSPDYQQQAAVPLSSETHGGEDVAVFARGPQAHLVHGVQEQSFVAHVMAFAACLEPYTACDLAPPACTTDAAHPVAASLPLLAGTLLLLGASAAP
Intestinal-type alkaline phosphatase (Mus musculus, UniProt P24822), sequence (P24822 whole entry): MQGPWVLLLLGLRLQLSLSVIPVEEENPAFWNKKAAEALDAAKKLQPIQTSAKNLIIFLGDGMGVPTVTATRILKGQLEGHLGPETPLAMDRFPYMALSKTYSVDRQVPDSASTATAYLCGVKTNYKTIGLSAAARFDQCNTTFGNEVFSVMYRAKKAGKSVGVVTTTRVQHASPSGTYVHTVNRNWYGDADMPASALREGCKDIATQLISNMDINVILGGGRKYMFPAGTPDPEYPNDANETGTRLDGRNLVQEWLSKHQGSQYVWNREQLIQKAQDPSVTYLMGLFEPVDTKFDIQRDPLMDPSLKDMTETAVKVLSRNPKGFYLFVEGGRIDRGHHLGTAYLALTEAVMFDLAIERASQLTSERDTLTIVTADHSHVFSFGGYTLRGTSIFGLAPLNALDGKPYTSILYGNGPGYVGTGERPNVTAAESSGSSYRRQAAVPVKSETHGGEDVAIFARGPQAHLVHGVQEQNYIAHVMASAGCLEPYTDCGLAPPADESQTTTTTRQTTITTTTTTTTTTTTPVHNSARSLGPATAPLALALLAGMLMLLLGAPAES

Structure (SMILES): CCOc1ccc2nc(O)c(CN(Cc3ccco3)C(CC)c3nnnn3Cc3ccccc3)cc2c1 (stereo not drawn)
IC50 (H9c2): > 79 µM (inactive)
EC50 [1]: > 100 µM (inactive)

EC50 [3]: 65.5 µM (active)
EC50 [4]: > 100 µM (inactive)
EC50 [5]: 53.2 µM (active)
EC50 [6]: 23.1 µM (active)
Structure (SMILES): COc1ccccc1CCNC(=O)C1CCN(c2nnc(C)c3c(C)n(-c4ccc(C)cc4)nc23)CC1
CC50 [2]: 17.4 µM (active)

IC50 [7]: 4.61 µM (active)
Structure (SMILES): Nc1ncc(-c2nnnn2-c2ccc(Cl)cc2)c(-c2ccc(Cl)cc2)n1

— ChEMBL document CHEMBL1201862, “PubChem BioAssay data set” (2004)
